Drawing on publication PMC2787625, “A Neuronal Acetylcholine Receptor Regulates the Balance of Muscle Excitation and Inhibition in Caenorhabditis elegans” (PLoS Biology, 2009), this text covers EC50 for one compound.

Molecules are shown by their SMILES. Where two headings read alike, the source gives them in different places.

A word on the EC50: it is the midpoint of the concentration-response curve. Low values mean higher potency in that assay, high ones lower potency in that assay.

Assay [1] deals with ACR-2R (ACR-2-containing acetylcholine receptor: UNC-38, UNC-63, ACR-12, ACR-2, ACR-3). As to conditions: agonist; 1 mM external CaCl2; 500 µM and 1 mM points excluded from fit (open-channel block).
For assay [2] the test system is unchanged. The settings on record: agonist; 1 mM external CaCl2; 500 µM and 1 mM points excluded from fit (open-channel block); n2420 gain-of-function subunit ACR-2(V13′M).

As for `CC(=O)OCC[N+](C)(C)C` [acetylcholine], the results for the EC50 in assay [1] and in assay [2] were 14.1 ± 1.2 µM and 17.8 ± 1.4 µM, respectively.
